Laboratory results from PubChem BioAssay AID1963985 (Molecular Pharmacology Branch, DTP, NCI, 2024).
Each block holds one compound with its values, some of them ahead of it.

Test system: 252836-082-R-J2-PDC tumor spheroids, viability
Test: Anticancer human tumor 252836-082-R-J2-PDC patient-derived head and neck squamous cell carcinoma cell line growth inhibition [PI3K]
Conditions: spheroids with HUVEC and MSC; for viability, T/C: stronger effect = lower value
Source text: Combinatorial screen of targeted agents with the PI3K inhibitors inavolisib, alpelisib, duvelisib, and copanlisib in multi-cell type tumor spheroids
A high-throughput screen of multi-cell type tumor spheroids was designed to identify active combinations of targeted small molecules and PI3K pathway inhibitors. Complex spheroids include a stromal component modeled by human endothelial cells (HUVEC) and fibroblasts modeled by human mesenchymal stem cells (MSCs). The concentration ranges selected for each drug and investigational agent were based upon clinically achievable concentrations if the clinical Cmax of the agent was known.
Compounds. The drugs and investigational agents: inavolisib (NSC800729), alpelisib (NSC765974), duvelisib (NSC772469), copanlisib (NSC816437), ipatasertib (NSC767898), afuresertib (NSC778305), talazoparib (NSC767125), sapanisertib (NSC764658), selumetinib (NSC741078), tovorafenib (DAY101, NSC766906), vemurafenib (NSC761431), ravoxertinib (NSC781343), sotorasib (NSC818433), MRTX1133 (NSC 836407), abemaciclib (NSC 768073), palbociclib (NSC758247), venetoclax (NSC 766270), SY5609 (NSC837396), enzalutamide (NSC755605), and darolutamide (NSC825331), were obtained from the National Cancer Institute (NCI) Developmental Therapeutics Program Chemical Repository. The FDA-approved anticancer drug set is available from the NCI Developmental Therapeutics Program. […] The stock solutions were prepared in dimethyl sulfoxide (DMSO, Sigma-Aldrich, St. Louis, MO, cat. D2650) at 800-fold the tested concentration and stored at -70 degrees C prior to their use. All drugs and investigational agents were tested over a range starting from a high concentration at or near the clinical Cmax and decreasing in half-log increments. If the clinical Cmax for an agent had not been determined, the highest concentration tested was 10 microM.
Cell Culture. All cells were maintained in an incubator at 37 degrees C and 5% CO2 with 95% humidity. The PDC lines were cultured according to standard operating procedures established by the NCI PDMR (https://pdmr.cancer.gov/sops/default.htm). All PDCs were thawed and cultured in Matrigel-coated flasks prepared with a working solution of 1X Ham's F-12 nutrient mix, without supplementation (Invitrogen, Waltham, MA, cat. 11765054), 100 U/mL penicillin-streptomycin (Invitrogen, cat. 15140122), and 2.5% Matrigel (Corning Inc., Corning, NY, cat. 354248) for the first three passages. The 354836-022-R-J1-PDC, 475296-252-R-J1-PDC, and 997726-040-R-J2-PDC lines were cultured in 6A media, which includes advanced DMEM/F-12 (Thermo Fisher Scientific, cat. 12634028), 10 mM HEPES (Thermo Fisher Scientific, cat. 15630080), 1X GlutaMAX supplement (Thermo Fisher Scientific, cat. 35050061), 0.1 mg/mL primocin (InvivoGen, San Diego, CA, cat. ant-pm-2), 10% defined fetal bovine serum, heat inactivated (HyClone Laboratories Inc., Logan, UT, cat. SH30070.03HI), 50% L-WRN conditioned media (ATCC, cat. CRL-3276), 1.25 mM N-Acetyl-L-cysteine (Sigma-Aldrich, cat. A9165), 10 mM nicotinamide (Sigma-Aldrich, cat. N0636), 1X B-27 supplement (Thermo Fisher Scientific, cat. 17504044), 1X N-2 supplement (Thermo Fisher Scientific, cat. 17502048), and 10 microM Y-27632 dihydrochloride (Tocris Bioscience, Bristol, United Kingdom, cat. 1254). The 624824-186-R-J2-PDC line was cultured in 6C/Colon 1B media, which includes all 6A media components plus 50 ng/mL human EGF recombinant protein (Thermo Fisher Scientific, cat. PHG0311). […]
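Note: spheroids exposed to agents for seven days before readout.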
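Throughout, for viability, T/C: percent of vehicle DMSO control viability so 100% = untreated growth.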

- IC50 (curve of compound): 684 nM [middle of 4 runs]
SMILES: Cn1ncc(Cl)c1-c1cc(C(=O)NC(CN)Cc2cccc(F)c2)sc1Cl (centres undefined)
- viability, T/C (compound 0.0316 µM): 84.6% [middle of 4 runs]
- viability, T/C (compound 0.1 µM): 85% [middle of 4 runs]
- viability, T/C (compound 0.316 µM): 66.9% [middle of 4 runs]
- viability, T/C (compound 1 µM): 42.4% [middle of 4 runs]
- viability, T/C (compound 3.16 µM): 30.8% [middle of 4 runs]
- viability, T/C (compound 10 µM): 12.7% [middle of 4 runs]

- IC50 (curve of first compound, second compound 0.00316 µM): > 1000 nM
- IC50 (curve of first compound, second compound 0.01 µM): > 1000 nM
- IC50 (curve of first compound, second compound 0.0316 µM): > 1000 nM
- IC50 (curve of first compound, second compound 0.1 µM): < 3.16 nM
- IC50 (curve of first compound, second compound 0.316 µM): < 3.16 nM
- IC50 (curve of first compound, second compound 1 µM): < 3.16 nM
SMILES: CCN1CCN(Cc2ccc(Nc3ncc(F)c(-c4cc(F)c5nc(C)n(C(C)C)c5c4)n3)nc2)CC1 + COc1c(OCCCN2CCOCC2)ccc2c3n(c(=NC(=O)c4cnc(N)nc4)nc12)CCN3
- viability, T/C (second compound 0.00316 µM, first compound 0.00316 µM): 86.4%
- viability, T/C (second compound 0.00316 µM, first compound 0.01 µM): 80.1%
- viability, T/C (second compound 0.00316 µM, first compound 0.0316 µM): 97.1%
- viability, T/C (second compound 0.00316 µM, first compound 0.1 µM): 85.4%
- viability, T/C (second compound 0.00316 µM, first compound 0.316 µM): 91.6%
- viability, T/C (second compound 0.00316 µM, first compound 1 µM): 82.6%
- viability, T/C (second compound 0.01 µM, first compound 0.00316 µM): 75.8%
- viability, T/C (second compound 0.01 µM, first compound 0.01 µM): 75.2%
- viability, T/C (second compound 0.01 µM, first compound 0.0316 µM): 82.5%
- viability, T/C (second compound 0.01 µM, first compound 0.1 µM): 80.8%
- viability, T/C (second compound 0.01 µM, first compound 0.316 µM): 72.6%
- viability, T/C (second compound 0.01 µM, first compound 1 µM): 78%
- viability, T/C (second compound 0.0316 µM, first compound 0.00316 µM): 56.2%
- viability, T/C (second compound 0.0316 µM, first compound 0.01 µM): 59%
- viability, T/C (second compound 0.0316 µM, first compound 0.0316 µM): 55.4%
- viability, T/C (second compound 0.0316 µM, first compound 0.1 µM): 57%
- viability, T/C (second compound 0.0316 µM, first compound 0.316 µM): 55.5%
- viability, T/C (second compound 0.0316 µM, first compound 1 µM): 47%
- viability, T/C (second compound 0.1 µM, first compound 0.00316 µM): 34.6%
- viability, T/C (second compound 0.1 µM, first compound 0.01 µM): 34.9%
- viability, T/C (second compound 0.1 µM, first compound 0.0316 µM): 31.2%
- viability, T/C (second compound 0.1 µM, first compound 0.1 µM): 29.7%
- viability, T/C (second compound 0.1 µM, first compound 0.316 µM): 33.9%
- viability, T/C (second compound 0.1 µM, first compound 1 µM): 32.4%
- viability, T/C (second compound 0.316 µM, first compound 0.00316 µM): 14.1%
- viability, T/C (second compound 0.316 µM, first compound 0.01 µM): 15.2%
- viability, T/C (second compound 0.316 µM, first compound 0.0316 µM): 12.4%
- viability, T/C (second compound 0.316 µM, first compound 0.1 µM): 13.1%
- viability, T/C (second compound 0.316 µM, first compound 0.316 µM): 17.7%
- viability, T/C (second compound 0.316 µM, first compound 1 µM): 14.9%
- viability, T/C (second compound 1 µM, first compound 0.00316 µM): 4.92%
- viability, T/C (second compound 1 µM, first compound 0.01 µM): 3.69%
- viability, T/C (second compound 1 µM, first compound 0.0316 µM): 3.43%
- viability, T/C (second compound 1 µM, first compound 0.1 µM): 4.13%
- viability, T/C (second compound 1 µM, first compound 0.316 µM): 5.78%
- viability, T/C (second compound 1 µM, first compound 1 µM): 8.31%

- IC50 (curve of compound): 5.49 µM [middle of 4 runs]
SMILES: CCCS(=O)(=O)Nc1ccc(F)c(C(=O)c2c[nH]c3ncc(-c4ccc(Cl)cc4)cc23)c1F
- viability, T/C (compound 0.0316 µM): 99% [middle of 4 runs]
- viability, T/C (compound 1 µM): 96.2% [middle of 4 runs]
- viability, T/C (compound 3.16 µM): 90% [middle of 4 runs]
- viability, T/C (compound 10 µM): 8.42% [middle of 4 runs]
